Data: the Kinase Knowledgebase extract (Sharma et al. 2016)

Target: CDK2 (human) (UniProt P24941)
Assay: Enzyme Assay

| SMILES | IC50 |
| --- | --- |
| CN(C)C(=O)c1ccc(C(=O)Nc2ccc(-n3cncn3)c(F)c2)o1 | ≥ 40 µM |
| COc1ccc(NC(=O)c2ccc(C(=O)Nc3ccc(-n4cccn4)cc3)s2)c(C)c1 | ≥ 40 µM |
| CN1CCCC1CCNC(=O)c1ccc(C(=O)Nc2ccc(-n3cncn3)cc2)s1 (stereo not given) | ≥ 40 µM |
| Cc1ccccc1C(=O)Nc1ccc(C(=O)Nc2ccc(-n3cncn3)cc2)o1 | ≥ 40 µM |
| COc1ccc(NC(=O)c2ccc(C(=O)Nc3ccc(-c4ncn(C)n4)cc3)s2)c(C)c1 | ≥ 40 µM |
| Cc1cc(N2CCNCC2)ccc1NC(=O)c1ccc(C(=O)Nc2ccc(-n3cncn3)cc2)s1 | ≤ 1 µM |
| COc1ccc(NC(=O)c2ccc(C(=O)Nc3ccc(-n4cncn4)c(F)c3)s2)c(C)c1 | ≤ 1 µM |
| COc1ccc(NCc2ccc(C(=O)Nc3ccc(-n4cncn4)cc3)o2)c(C)c1 | ≥ 40 µM |
| COc1ccc(C(=O)Nc2ccc(C(=O)N3CCC(c4ccccn4)C3)o2)c(C)c1 (stereo not given) | ≥ 40 µM |
| CN(Cc1ccco1)C(=O)c1ccc(C(=O)Nc2ccc(-n3cncn3)cc2)s1 | ≥ 40 µM |
| O=C(Nc1ccc(-n2cncn2)cc1)c1ccc(NC(=O)C2CCCCC2)o1 | ≥ 40 µM |
| COc1ccc(NC(=O)c2ccc(C(=O)Nc3ccc(N4CCN(C)CC4)cc3)s2)c(C)c1 | ≥ 40 µM |
| Cc1cc(N2CCOCC2)ccc1NC(=O)c1ccc(C(=O)Nc2ccc(-n3cncn3)cc2)s1 | ≤ 1 µM |
| COc1ccc(NC(=O)c2ccc(C(=O)Nc3ccc(N4CCCCC4)cc3)s2)c(C)c1 | ≥ 40 µM |
| O=C(Nc1ccc(C(=O)Nc2ccc(-n3cncn3)cc2)o1)c1ccncc1 | ≥ 40 µM |
| CC(=O)N1CCC(NC(=O)c2ccc(C(=O)Nc3ccc(-n4cncn4)cc3)s2)CC1 | 1 to 40 µM |
| CN1CCN(C(=O)c2ccc(C(=O)Nc3ccc(-n4cncn4)cc3)s2)CC1 | ≥ 40 µM |
| Cc1ccccc1NC(=O)c1ccc(C(=O)Nc2ccc(-n3cncn3)cc2)s1 | ≤ 1 µM |
| O=C(Nc1ccc(-n2cncn2)cc1)c1ccc(C(=O)Nc2cccc(O)c2)s1 | ≥ 40 µM |
| O=C(NCCc1ccccn1)c1ccc(C(=O)Nc2ccc(-n3cncn3)cc2)s1 | ≥ 40 µM |
| COc1ccc(NC(=O)c2ccc(C(=O)N3CCC(c4ccncc4)C3)s2)c(C)c1 (stereo not given) | 1 to 40 µM |
| COc1ccc(NC(=O)c2ccc(C(=O)Nc3ccc(-n4cncn4)cc3)s2)cc1Cl | 1 to 40 µM |
| O=C(Nc1ccc(-n2cncn2)cc1)c1ccc(C(=O)NC2CCC2)s1 | ≥ 40 µM |

| SMILES | IC50 |
| --- | --- |
| Cn1nc(C2CC2)cc1NC(=O)c1ccc(C(=O)Nc2ccc(-n3cncn3)cc2)s1 | 1 to 40 µM |
| Cc1cc(CN(C)C)ccc1NC(=O)c1ccc(C(=O)Nc2ccc(-n3cncn3)c(F)c2)s1 | 1 to 40 µM |
| COc1ccc(NC(=O)c2ccc(C(=O)Nc3ccc(-n4cncn4)cc3)o2)cc1 | ≤ 1 µM |
| C[C@H](NC(=O)c1ccc(C(=O)Nc2ccc(-n3cncn3)c(F)c2)o1)C1CCCCC1 | ≤ 1 µM |
| O=C(Nc1ccc(-n2cncn2)c(F)c1)c1ccc(C(=O)Nc2ccccc2Oc2cccnc2)s1 | ≥ 40 µM |
| COc1ccc(NC(=O)c2ccc(C(=O)Nc3ccc(-n4cncn4)c(F)c3)o2)c(C)c1 | ≤ 1 µM |
| COc1ccc(C(=O)Nc2ccc(C(=O)Nc3ccc(-n4ccnc4)cc3)o2)c(C)c1 | ≥ 40 µM |
| O=C(Nc1ccc(-n2cncn2)cc1)c1ccc(C(=O)Nc2nccs2)s1 | ≥ 40 µM |
| COc1ccc(NC(=O)c2ccc(C(=O)Nc3ccc(-c4nc[nH]n4)c(F)c3)s2)c(C)c1 | ≤ 1 µM |
| Cc1cc(N[C@H]2CCNC2)ccc1NC(=O)c1ccc(C(=O)Nc2ccc(-n3cncn3)c(F)c2)s1 | ≤ 1 µM |
| Cc1cc(CN2CCN(C)CC2)ccc1NC(=O)c1ccc(C(=O)Nc2ccc(-n3cncn3)cc2)s1 | ≤ 1 µM |
| Cc1cc(O)ccc1NC(=O)c1ccc(C(=O)Nc2ccc(-n3cncn3)cc2)s1 | ≤ 1 µM |
| COc1ccc(C(=O)Nc2ccc(C(=O)Nc3ccc(-n4cncn4)c(F)c3)s2)c(C)c1 | ≤ 1 µM |
| O=C(Nc1ccc(-n2cncn2)cc1)c1ccc(C(=O)N[C@@H]2CC3CCC2C3)s1 (stereo not given in full) | ≥ 40 µM |
| COc1ccc(NC(=O)c2ccc(C(=O)Nc3ccc(-n4cncn4)cc3)o2)c(C)c1 | ≤ 1 µM |
| O=C(Nc1ccc(-n2cncn2)c(F)c1)c1ccc(C(=O)Nc2ccccc2OCc2ccncc2)s1 | ≥ 40 µM |
| COc1cccc(NC(=O)c2ccc(C(=O)Nc3ccc(-n4cncn4)cc3)s2)c1OC | 1 to 40 µM |
| O=C(Nc1ccc(-n2cncn2)cc1)c1ccc(C(=O)Nc2cc(-c3ccco3)n[nH]2)s1 | ≥ 40 µM |
| COc1ccc(C(=O)Nc2ccc(C(=O)N3CCC(Oc4cnccn4)CC3)s2)c(C)c1 | 1 to 40 µM |
| O=C(Nc1ccc(-n2cncn2)cc1)c1ccc(C(=O)Nc2ccc3ncsc3c2)s1 | ≥ 40 µM |
| O=C(Nc1ccc(-n2cncn2)cc1)c1ccc(C(=O)Nc2cc(F)ccc2F)s1 | ≥ 40 µM |
| CC(CN(C)C)NC(=O)c1ccc(C(=O)Nc2ccc(-n3cncn3)cc2)s1 (stereo not given) | ≥ 40 µM |
